Active and inactive are the calls of the source.
What was measured:
[1] = target: Glyceraldehyde-3-phosphate dehydrogenase (Homo sapiens, UniProt P04406)
[2] = HIV-1 Env-mediated cell fusion inhibitors, dose response, CCR5-tropic Env (AID 2279); type: functional
[3] = target: T1, Voltage-gated N-type calcium channel alpha-1B subunit/Amyloid beta A4 precursor protein-binding family A member 1 (Homo sapiens, UniProt Q00975+Q02410); type: protein assay
Streptokinase A = target: T2, Streptokinase A (Streptococcus pyogenes serotype M1, UniProt P10520); test: S. pyogenes streptokinase expression inhibitors, potency, dose response, plasminogen activation absorbance, OD405 (AID 1914); type: functional, Streptococcus pyogenes M1 GAS;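 also: secreted streptokinase activity via plasminogen activation per viability signal from cell pellet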
T2 sequence (P10520 whole entry): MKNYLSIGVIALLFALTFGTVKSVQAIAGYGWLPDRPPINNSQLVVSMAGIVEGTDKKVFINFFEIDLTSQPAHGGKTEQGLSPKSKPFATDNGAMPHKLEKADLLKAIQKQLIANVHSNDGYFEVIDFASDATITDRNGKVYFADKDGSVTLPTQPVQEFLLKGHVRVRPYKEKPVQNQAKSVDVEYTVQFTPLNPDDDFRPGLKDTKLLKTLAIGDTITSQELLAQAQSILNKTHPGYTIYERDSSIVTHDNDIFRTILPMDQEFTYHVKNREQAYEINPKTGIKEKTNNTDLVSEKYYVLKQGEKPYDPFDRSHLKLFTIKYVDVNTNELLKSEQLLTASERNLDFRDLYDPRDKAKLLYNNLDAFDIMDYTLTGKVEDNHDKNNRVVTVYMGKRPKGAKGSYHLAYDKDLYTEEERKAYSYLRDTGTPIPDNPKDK

[4] = target: Induced myeloid leukemia cell differentiation protein Mcl-1 (Homo sapiens, UniProt Q07820); type: functional
[5] = target: T1, Voltage-gated N-type calcium channel alpha-1B subunit/Amyloid beta A4 precursor protein-binding family A member 1; type: protein assay; remark: listed apart in the source
Streptococcus = test: Group A Streptococcus viability loss, dose response, counter-screen for streptokinase expression inhibitor project, luminescence, BacTiterGlo (AID 1915); type: functional, organism-based;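 also: potency for reduction of bacterial viability or growth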
[6] = test system: Streptococcus sp. 'group A'; test: growth inhibition of control SK(-) GAS strain, dose response, counter-screen for streptokinase expression inhibitor project, luminescence, kanamycin, BacTiterGlo, confirmation (AID 1900); type: functional, organism-based
[7] = target: T3, High affinity choline transporter 1 (Homo sapiens, UniProt Q9GZV3); test: CHT inhibitors, dose response, cell-based, 10-point CRC, membrane potential dye (AID 588401); type: functional;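 also: membrane potential dye fluorescence of choline-evoked depolarization via CHT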
T3 sequence (Q9GZV3 whole entry): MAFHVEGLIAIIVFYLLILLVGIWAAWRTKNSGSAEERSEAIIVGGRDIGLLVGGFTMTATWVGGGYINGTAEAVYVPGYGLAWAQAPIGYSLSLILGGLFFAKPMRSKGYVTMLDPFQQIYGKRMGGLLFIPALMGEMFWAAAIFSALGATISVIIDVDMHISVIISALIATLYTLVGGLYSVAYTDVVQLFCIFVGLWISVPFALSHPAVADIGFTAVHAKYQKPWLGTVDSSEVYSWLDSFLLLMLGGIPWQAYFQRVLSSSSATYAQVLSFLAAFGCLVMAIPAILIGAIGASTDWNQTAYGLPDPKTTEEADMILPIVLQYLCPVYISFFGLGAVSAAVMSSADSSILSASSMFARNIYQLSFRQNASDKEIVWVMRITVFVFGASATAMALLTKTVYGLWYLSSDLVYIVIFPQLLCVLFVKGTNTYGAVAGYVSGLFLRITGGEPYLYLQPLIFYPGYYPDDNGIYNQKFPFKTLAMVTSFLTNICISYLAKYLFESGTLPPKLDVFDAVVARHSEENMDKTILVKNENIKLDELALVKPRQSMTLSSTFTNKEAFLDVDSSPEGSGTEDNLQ

[8] = target: T3, High affinity choline transporter 1; test: CHT inhibitors, dose response, cell-based, 5-point CRC, membrane potential dye (AID 504840); type: functional
[9] = target: T4, Alkaline phosphatase, tissue-nonspecific isozyme (Homo sapiens, UniProt P05186)
T4 sequence (P05186 whole entry): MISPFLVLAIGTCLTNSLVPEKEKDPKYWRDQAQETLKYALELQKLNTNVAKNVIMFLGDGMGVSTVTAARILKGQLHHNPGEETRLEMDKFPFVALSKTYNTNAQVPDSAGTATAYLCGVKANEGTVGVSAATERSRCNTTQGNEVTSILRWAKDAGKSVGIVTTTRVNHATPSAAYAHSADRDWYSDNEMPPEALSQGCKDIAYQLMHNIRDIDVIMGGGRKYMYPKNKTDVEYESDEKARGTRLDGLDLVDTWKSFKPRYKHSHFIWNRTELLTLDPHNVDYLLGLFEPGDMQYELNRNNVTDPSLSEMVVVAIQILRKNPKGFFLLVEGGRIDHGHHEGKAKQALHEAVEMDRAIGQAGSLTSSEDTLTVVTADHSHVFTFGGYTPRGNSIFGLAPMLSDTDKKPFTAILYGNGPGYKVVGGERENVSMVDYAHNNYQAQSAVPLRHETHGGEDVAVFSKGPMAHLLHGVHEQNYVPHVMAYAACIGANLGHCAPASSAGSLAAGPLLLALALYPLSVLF

[10] = target: Melanin-concentrating hormone receptor 1 (Homo sapiens, UniProt Q99705); test: Late-stage fluorescence-based counterscreen for antagonists of the G-protein coupled receptor 7 (GPR7): cell-based dose response assay to identify antagonists of the melanin-concentrating hormone receptor 1 (MCHR1). [Related pubchem assays (depositor defined):AID1861, AID1880, AID1952, AID2148, AID2251, AID2257, AID485339]; type: functional;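 also: stimulated with 30 nM MCH peptide agonist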
[11] = A Cell Based Secondary Assay To Explore Cytotoxicity of Compounds that Sensitize Mycobacterium Tuberculosis to Beta-Lactam Antibiotics.; type: functional
[12] = A Cell Based Assay for the Identification of Probe candidate Compounds with Anti- Venezuelan Equine Encephalitis virus. [Related pubchem assays: 2409, 2419, 1621, 2238, 2405, 2024, 2065, 2402, 2414, 1635, 1650, 2244 ]; type: functional
Cytochrome P450 2D6 = Cytochrome P450 2D6 (Homo sapiens, UniProt P10635); test: qHTS Assay for Inhibitors and Substrates of Cytochrome P450 2D6. [Related pubchem assays: 410 ]; type: ADME; conditions: read-out: Potency
[13] = target: C-C chemokine receptor type 6 (Homo sapiens, UniProt P51684); test: CCR6 receptor antagonists, dose response, cell-based, luminescent beta-arrestin readout (AID 504728); type: functional
Beta-galactosidase = Beta-galactosidase (Escherichia coli, UniProt Q8VNN2); test: beta-galactosidase enzyme inhibitors and activators, dose response, artefact control for CCR6 antagonist project, biochemical, E. coli enzyme, set 3 (AID 504712); type: functional
[14] = target: T5, Polyadenylate-binding protein 1 (Homo sapiens, UniProt P11940); test: PABP1 MLLE–PAM2 interaction inhibitors, dose response, miRNA deadenylation inhibitor project, biochemical, fluorescence polarization, Cy5-PAM2 peptide, secondary (AID 602260); type: functional; conditions: read-out: IC50_Mean
[15] = target: T5, Polyadenylate-binding protein 1; test: PABP1 MLLE–PAM2 binding inhibitor potency, dose response, biochemical, fluorescence polarization, FITC-PAM2 peptide (AID 602259); type: functional; conditions: read-out: IC50_Mean

Glyceraldehyde-3-phosphate dehydrogenase, sequence (P04406 whole entry, the tested form may be a part): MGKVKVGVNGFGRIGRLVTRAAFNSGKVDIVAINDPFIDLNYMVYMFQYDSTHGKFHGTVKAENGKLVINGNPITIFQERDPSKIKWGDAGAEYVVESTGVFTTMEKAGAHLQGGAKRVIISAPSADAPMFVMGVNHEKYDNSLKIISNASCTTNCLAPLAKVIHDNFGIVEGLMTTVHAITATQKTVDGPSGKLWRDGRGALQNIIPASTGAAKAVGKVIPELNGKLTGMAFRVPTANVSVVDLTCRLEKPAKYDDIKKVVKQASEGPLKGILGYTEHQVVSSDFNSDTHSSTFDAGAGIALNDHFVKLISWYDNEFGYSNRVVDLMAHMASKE
Cytochrome P450 2D6, sequence (P10635 whole entry): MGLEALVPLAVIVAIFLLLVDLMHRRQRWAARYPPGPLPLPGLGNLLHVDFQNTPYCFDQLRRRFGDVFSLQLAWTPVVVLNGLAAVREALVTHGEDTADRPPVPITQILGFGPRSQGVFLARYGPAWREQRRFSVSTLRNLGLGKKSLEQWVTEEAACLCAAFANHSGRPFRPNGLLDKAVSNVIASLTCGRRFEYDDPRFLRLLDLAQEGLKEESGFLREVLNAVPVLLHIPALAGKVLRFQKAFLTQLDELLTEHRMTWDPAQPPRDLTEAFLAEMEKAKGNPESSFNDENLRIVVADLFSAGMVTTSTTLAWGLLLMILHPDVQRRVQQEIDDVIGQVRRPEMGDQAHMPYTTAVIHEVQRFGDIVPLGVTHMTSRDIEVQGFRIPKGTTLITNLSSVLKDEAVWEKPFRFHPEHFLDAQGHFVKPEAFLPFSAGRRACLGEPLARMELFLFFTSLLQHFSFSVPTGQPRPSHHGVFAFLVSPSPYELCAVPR
Melanin-concentrating hormone receptor 1, sequence (Q99705 whole entry): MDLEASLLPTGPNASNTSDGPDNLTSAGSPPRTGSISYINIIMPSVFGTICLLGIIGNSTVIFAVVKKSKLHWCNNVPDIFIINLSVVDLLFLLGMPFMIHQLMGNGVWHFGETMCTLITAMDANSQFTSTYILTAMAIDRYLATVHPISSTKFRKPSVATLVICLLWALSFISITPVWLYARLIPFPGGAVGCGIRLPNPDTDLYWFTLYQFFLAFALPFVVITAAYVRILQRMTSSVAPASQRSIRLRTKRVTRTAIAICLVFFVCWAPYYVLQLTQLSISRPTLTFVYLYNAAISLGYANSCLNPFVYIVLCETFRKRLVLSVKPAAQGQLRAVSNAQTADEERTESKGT
T5 sequence (P11940 whole entry): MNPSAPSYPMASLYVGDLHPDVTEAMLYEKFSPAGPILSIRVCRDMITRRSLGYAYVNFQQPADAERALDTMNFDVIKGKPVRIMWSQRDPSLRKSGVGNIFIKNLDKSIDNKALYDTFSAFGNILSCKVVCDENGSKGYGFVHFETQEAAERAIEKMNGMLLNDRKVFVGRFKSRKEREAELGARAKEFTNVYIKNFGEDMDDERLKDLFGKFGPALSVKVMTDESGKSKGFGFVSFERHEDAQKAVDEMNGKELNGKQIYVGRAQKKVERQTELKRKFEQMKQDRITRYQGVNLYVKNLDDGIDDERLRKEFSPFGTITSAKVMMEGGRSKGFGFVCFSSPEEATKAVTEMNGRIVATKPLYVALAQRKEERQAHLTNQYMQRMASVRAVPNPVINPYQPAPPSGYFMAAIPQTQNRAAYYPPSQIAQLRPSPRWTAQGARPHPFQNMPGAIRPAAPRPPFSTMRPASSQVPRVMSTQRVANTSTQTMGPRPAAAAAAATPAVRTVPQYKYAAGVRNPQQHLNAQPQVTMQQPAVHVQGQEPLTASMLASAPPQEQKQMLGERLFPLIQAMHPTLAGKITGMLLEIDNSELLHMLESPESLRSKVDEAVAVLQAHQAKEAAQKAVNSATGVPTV
T1 sequence (Q00975 whole entry): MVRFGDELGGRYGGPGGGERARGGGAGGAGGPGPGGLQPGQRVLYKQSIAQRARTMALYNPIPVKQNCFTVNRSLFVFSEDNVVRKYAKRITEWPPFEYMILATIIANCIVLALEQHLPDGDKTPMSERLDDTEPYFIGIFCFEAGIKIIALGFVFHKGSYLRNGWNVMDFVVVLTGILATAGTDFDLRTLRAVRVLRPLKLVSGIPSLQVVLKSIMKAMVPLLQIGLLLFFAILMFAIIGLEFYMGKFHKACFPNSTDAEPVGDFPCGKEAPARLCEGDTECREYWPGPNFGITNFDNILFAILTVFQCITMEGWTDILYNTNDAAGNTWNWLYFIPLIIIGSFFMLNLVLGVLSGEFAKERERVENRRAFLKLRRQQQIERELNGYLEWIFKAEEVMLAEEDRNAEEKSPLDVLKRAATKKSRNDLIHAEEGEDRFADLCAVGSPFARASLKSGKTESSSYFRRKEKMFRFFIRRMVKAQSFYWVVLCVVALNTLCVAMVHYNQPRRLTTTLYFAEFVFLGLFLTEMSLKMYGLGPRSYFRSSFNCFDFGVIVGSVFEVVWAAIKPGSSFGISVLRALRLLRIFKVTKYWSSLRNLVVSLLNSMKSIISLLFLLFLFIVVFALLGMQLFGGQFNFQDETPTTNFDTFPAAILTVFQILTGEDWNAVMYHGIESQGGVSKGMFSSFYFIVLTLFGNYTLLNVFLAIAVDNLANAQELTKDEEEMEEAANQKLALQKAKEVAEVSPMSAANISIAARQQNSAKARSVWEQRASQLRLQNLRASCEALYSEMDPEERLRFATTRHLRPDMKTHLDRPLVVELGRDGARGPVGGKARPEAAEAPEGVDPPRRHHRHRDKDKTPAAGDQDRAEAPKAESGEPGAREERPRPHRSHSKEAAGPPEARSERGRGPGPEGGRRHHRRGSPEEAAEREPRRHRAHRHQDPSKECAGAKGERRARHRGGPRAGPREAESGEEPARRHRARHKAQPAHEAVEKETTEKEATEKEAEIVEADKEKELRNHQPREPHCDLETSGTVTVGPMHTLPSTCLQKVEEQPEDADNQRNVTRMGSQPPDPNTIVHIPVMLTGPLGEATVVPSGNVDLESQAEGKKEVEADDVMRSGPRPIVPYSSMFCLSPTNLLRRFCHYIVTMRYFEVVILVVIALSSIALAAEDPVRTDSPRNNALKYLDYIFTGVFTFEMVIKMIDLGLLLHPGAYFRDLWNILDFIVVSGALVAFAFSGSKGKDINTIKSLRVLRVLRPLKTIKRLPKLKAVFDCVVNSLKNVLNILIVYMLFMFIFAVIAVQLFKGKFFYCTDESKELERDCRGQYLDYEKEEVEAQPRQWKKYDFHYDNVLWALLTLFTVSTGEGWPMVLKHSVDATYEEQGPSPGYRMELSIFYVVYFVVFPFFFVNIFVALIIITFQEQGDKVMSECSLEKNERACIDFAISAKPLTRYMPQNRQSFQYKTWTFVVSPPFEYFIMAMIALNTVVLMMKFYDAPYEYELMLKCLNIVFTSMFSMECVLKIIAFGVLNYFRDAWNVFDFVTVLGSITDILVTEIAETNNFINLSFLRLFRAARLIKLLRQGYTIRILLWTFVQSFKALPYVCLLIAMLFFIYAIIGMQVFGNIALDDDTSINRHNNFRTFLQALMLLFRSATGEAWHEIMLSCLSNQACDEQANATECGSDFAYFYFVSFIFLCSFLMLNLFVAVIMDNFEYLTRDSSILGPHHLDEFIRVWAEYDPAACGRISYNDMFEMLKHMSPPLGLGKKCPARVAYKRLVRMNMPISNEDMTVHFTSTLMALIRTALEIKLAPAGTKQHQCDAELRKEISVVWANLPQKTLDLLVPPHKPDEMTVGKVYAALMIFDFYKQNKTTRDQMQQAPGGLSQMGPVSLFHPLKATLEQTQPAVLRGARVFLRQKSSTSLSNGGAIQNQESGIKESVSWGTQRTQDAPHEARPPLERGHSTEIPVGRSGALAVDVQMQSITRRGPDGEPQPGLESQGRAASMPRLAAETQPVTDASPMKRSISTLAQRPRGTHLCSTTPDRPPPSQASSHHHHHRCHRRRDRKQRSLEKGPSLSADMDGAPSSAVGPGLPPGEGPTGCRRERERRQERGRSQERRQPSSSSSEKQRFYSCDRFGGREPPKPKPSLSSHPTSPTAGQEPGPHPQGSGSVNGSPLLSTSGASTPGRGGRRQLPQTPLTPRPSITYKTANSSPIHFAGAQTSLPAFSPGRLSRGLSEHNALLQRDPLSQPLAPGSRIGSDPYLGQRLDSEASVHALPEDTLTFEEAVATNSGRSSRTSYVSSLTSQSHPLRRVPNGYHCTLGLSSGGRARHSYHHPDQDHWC
T1 sequence (Q02410 whole entry): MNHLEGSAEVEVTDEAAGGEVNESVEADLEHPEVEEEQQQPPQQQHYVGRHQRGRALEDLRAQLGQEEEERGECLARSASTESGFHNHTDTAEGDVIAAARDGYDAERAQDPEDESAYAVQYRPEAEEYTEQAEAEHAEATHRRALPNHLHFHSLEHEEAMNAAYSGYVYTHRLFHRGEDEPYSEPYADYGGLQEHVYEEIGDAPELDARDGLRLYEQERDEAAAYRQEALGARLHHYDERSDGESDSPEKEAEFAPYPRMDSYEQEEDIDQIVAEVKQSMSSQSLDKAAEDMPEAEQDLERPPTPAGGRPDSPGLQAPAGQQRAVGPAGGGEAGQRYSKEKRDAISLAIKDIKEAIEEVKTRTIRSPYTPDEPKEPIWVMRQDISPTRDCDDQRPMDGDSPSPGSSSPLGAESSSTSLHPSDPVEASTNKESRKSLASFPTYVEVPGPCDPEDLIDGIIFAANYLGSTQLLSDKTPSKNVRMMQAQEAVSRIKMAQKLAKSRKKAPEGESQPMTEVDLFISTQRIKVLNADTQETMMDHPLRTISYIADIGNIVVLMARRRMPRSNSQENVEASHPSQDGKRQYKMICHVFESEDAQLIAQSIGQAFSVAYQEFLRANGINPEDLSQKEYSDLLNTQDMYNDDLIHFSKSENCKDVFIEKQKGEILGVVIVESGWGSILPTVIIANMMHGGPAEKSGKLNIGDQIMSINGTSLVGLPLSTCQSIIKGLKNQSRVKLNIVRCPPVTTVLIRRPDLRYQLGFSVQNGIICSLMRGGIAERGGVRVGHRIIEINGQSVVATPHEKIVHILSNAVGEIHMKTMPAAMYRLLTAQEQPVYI

Question: With CCOc1cc(C)c(Cl)cc1S(=O)(=O)Nc1cccnc1 as the compound, how does the IC50 [1] read?
Answer: The IC50 was > 100 µM (not active).

Question: With COc1ccc(/N=C2\S/C(=C\c3ccc(OC(C)C(=O)O)c(OC)c3)C(=O)N2CCc2c[nH]c3ccccc23)cc1 (stereo not given) as the compound, how does the IC50 [2] read?
Answer: Its IC50 is > 50 µM (active).

Question: And the IC50 [3]?
Answer: Its IC50 is 15.8 µM (active).

Question: What about the EC50 (Streptokinase A) of the same compound?
Answer: The EC50 was > 50 µM (not active).

Question: What about the IC50 [4] of the same compound?
Answer: Its IC50 is 7.55 µM (active).

Question: And the IC50 [5]?
Answer: The IC50 was > 50 µM (inactive).

Question: What about the EC50 (Streptococcus) of the same compound?
Answer: Its EC50 is 4.41 µM (active).

Question: What about the EC50 [6] of the same compound?
Answer: The EC50 was 1.86 µM (active).

Question: What does the source list for CS(=O)(=O)C1=NSC2=NC(=O)/C(=C\c3ccc(OS(=O)(=O)c4ccccc4)cc3)C(=N)N21?
Answer: IC50 [2]: 39.3 µM (active); IC50 [7]: 5.01 µM (active); IC50 [8]: 4.17 µM (active)

Question: For COc1ccc(-n2c(=O)c3ccccc3n(CC(=O)NC3CCCCC3)c2=O)cc1OC, which EC50 [9] is on record?
Answer: Its EC50 is > 100 µM (not active).

Question: Which IC50 [10] does the source give for COc1ccc(Oc2c(Cl)cnn(-c3cccc(C)c3)c2=O)cc1 here?
Answer: Its IC50 is 5.4 µM (active).

Question: With COc1ccc(S(=O)(=O)N(C(=O)c2ccncc2)c2ccc3oc4c(c3c2)CCCC4)cc1 as the compound, how does the CC50 [11] read?
Answer: Its CC50 is > 40 µM (active).

Question: For OCCN(CCO)Cc1nc(O)c2c(n1)-c1ccccc1CC21CCCCC1, which EC50 [9] is on record?
Answer: Its EC50 is 76.4 µM (not active).

Question: With COc1ccc(Oc2c(Cl)cnn(-c3cccc(Cl)c3)c2=O)cc1 as the compound, how does the IC50 [10] read?
Answer: The IC50 was 10.5 µM (inactive).

Question: For COc1ccc(NC(=O)CSc2nc3ccccc3c(=O)n2-c2ccc(F)cc2)cc1, which IC50 [12] is on record?
Answer: Its IC50 is > 66.6 µM (active).

Question: Which IC50 [1] does the source give for COCCNC(=O)c1cc(-c2ccc(Cl)cc2Cl)n[nH]1 here?
Answer: The IC50 was > 10 µM (inconclusive).

Question: With CN1CCc2cc3c(cc2[C@@H]1[C@H]1OC(=O)c2c1ccc1c2OCO1)OCO3 as the compound, how does the AC50 (Cytochrome P450 2D6) read?
Answer: Its AC50 is 10 µM (inconclusive).

Question: Which AC50 (Cytochrome P450 2D6) does the source give for O=c1cccc2n1C[C@@H]1C[C@H]2CN2CCCC[C@H]12 here?
Answer: The AC50 was 25.1 µM (inconclusive).

Question: Which CC50 [11] does the source give for CCN1C(=O)C(=CNNC(=O)c2ccccc2)C(=O)N(CC)C1=S here?
Answer: The CC50 was > 40 µM (active).

Question: For CCCCC(=O)NC(=S)Nc1ccccc1C(=O)Nc1ccccc1, which IC50 [13] is on record?
Answer: Its IC50 is > 66.6 µM (inactive).

Question: What about the IC50 (Beta-galactosidase) of the same compound?
Answer: Its IC50 is > 66.6 µM (inactive).

Question: What about the IC50 [14] of the same compound?
Answer: Its IC50 is > 66 µM (inactive).

Question: What about the IC50 [15] of the same compound?
Answer: The IC50 was > 66 µM (inactive).

Reference: ChEMBL document CHEMBL1201862, “PubChem BioAssay data set” (2004)
